# Measured values published in ChEMBL document CHEMBL1201862, “PubChem BioAssay data set” (2004).
# Calls of active or inactive are those of the source.
# Assays:
# [1] = target: T1, Short transient receptor potential channel 4 (Mus musculus, UniProt Q9QUQ5); assay: calcium entry via TRPC4 opening agents – cell-based, HEK293 TRPC4/mu-opioid, Fluo-4 calcium, dose response (AID 434937); format: functional
# T1 sequence (Q9QUQ5 whole entry): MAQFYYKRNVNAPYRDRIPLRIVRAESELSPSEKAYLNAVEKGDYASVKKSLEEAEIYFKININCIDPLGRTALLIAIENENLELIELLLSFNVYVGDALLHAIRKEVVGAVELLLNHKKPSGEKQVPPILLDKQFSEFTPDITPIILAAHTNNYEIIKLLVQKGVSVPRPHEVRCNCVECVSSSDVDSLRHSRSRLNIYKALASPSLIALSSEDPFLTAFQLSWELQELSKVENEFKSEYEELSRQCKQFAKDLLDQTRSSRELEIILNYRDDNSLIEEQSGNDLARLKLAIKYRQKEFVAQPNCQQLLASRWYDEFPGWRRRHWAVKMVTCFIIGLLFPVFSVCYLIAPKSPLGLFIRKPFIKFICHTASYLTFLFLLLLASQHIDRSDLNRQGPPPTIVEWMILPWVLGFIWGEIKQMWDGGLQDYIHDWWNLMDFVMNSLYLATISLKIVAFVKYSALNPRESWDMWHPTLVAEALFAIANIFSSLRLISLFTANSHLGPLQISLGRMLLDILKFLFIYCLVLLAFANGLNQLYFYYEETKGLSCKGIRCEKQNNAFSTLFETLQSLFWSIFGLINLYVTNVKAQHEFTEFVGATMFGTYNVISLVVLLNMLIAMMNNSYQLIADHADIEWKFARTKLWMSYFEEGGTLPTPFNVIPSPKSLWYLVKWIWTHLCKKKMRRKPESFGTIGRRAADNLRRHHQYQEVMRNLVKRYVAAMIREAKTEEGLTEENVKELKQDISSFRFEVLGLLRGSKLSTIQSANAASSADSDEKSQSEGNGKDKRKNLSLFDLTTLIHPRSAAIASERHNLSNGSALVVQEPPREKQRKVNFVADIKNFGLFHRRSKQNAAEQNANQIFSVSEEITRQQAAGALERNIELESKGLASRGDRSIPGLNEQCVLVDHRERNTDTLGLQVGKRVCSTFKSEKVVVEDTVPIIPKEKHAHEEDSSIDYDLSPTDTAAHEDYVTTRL
# H9c2 = assay: cells; format: functional, cell-based; settings: Rattus norvegicus, H9c2, Myocardium;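 note: confirmatory concentration-response retest of ultra-high-throughput screening hits for modulation of myocardial damage; cell death induced by hydrogen peroxide oxidative stress; compound pretreatment for 60 min then peroxide exposure for 2 h; potency is for protecting the cells against peroxide damage rather than for killing them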
# [2] = target: T2, Heat shock factor protein 1 (Mus musculus, UniProt P38532); assay: decrease of HSF1-responsive luciferase luminescence – cell-based, NIH3T3, dose retest, confirmation (AID 2382); format: functional;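 note: NIH3T3 fibroblasts with HSF1-driven luciferase reporter stressed by proteasome inhibitor MG132; luminescence from HSF1-driven luciferase expression after 8 hours of MG132 stress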
# T2 sequence (P38532 whole entry): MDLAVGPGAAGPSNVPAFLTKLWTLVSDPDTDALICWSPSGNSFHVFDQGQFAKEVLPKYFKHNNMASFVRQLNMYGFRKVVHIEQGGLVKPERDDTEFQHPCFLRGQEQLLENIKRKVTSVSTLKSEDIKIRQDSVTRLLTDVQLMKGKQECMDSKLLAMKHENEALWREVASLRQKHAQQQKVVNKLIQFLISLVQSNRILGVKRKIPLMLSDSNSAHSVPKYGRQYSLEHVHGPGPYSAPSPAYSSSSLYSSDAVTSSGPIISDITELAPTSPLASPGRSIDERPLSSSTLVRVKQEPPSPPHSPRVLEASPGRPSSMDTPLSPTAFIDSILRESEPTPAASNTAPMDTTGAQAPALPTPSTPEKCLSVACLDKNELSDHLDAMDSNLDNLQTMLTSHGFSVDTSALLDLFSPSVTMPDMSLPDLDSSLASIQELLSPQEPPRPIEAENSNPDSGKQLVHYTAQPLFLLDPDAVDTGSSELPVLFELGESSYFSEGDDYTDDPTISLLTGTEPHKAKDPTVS
# [3] = target: T3, Calpain-2 catalytic subunit (Sus scrofa, UniProt P43367); assay: m-calpain protease blockers, concentration series – biochemical, fluorogenic peptide substrate, dose response (AID 1420); format: functional
# T3 sequence (P43367 whole entry): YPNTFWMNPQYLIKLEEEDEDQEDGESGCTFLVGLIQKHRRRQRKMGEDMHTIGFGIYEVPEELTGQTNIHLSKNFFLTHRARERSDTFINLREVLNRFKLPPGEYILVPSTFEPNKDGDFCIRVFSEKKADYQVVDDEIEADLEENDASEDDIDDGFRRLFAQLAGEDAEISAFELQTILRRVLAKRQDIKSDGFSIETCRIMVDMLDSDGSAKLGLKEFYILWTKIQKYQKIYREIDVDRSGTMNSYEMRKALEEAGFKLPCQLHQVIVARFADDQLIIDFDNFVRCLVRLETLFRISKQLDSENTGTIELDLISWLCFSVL
# [4] = Luminescence Cell-Based Dose Response HTS to Identify Activators of Luciferase Translation or Activity in H4 […] Cells. [Related pubchem assays: 1829 (Project Summary), 1814 (Primary HTS)]; format: functional
# [5] = Luminescence Cell-Based Dose Confirmation HTS to Identify Activators of 5'UTR Stem-Loop Driven Alpha-Synuclein mRNA Translation in H4 Neuroglioblastoma Cells. [Related pubchem assays: 1829 (Project Summary), 1814 (Primary HTS)]; format: functional
# H4 = assay: Luminescence Cell-Based Dose Response HTS to Identify Activators of 5'UTR Stem-Loop Driven Prion Protein mRNA Translation in H4 Neuroglioblastoma Cells. [Related pubchem assays: 1829 (Project Summary), 1814 (Primary HTS)]; format: functional; settings: Homo sapiens
# [6] = NIH3T3 cell viability loss – ATP luminescence, mouse fibroblasts, counter-screen, dose response (AID 2010); format: functional, cell-based;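 note: cells exposed to compound for about 90 hours before reading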
# [7] = Trypanosoma cruzi growth suppression in host cells – NIH3T3 host cells, beta-gal luminescence, confirmation (AID 2044); format: functional, cell-based;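 note: intracellular parasites grown in NIH/3T3 mouse fibroblasts as host cells; luminescent beta-galactosidase reporter signal from transgenic T. cruzi replicating inside host cells; inhibitors lower the luminescence signal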
# [8] = non-specific 3'UTR reporter inhibition in Clone20-Shn3RL – cell-based, Renilla luciferase, cherry-picked, counter-screen for Shn3 inhibitor project, dose response (AID 624133); format: functional
# [9] = reduction of Shn3 3'UTR-driven luciferase in osteoblasts – cell-based, Clone20 osteoblasts, firefly luciferase, cherry-picked, dose response (AID 624132); format: functional;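 note: firefly luciferase luminescence from reporter carrying the Shn3 3'UTR in osteoblasts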
# [10] = loss of viability in HepG2 cells – cell-based, CellTiter-Glo, cherry-picked, cytotoxicity control for Shn3 inhibitor project, dose response (AID 624134); format: functional
# [11] = viability of uninfected HEp-2 cells – cell-based, HTS, cytotoxicity control for RSV inhibitor project, dose response (AID 2410); format: functional; settings: human respiratory syncytial virus
# [12] = blockers of HIV-1 envelope-mediated cell-cell fusion – cherry-pick, dose response (AID 652057); format: functional, cell-based
# cells = format: functional
structure (smiles),measurement,setting,value
O=C(c1c(F)cccc1F)N1CCN(c2ncc(Br)cn2)CC1,EC50,[1],0.596 µM (active)
COCCCn1c(C)nc2c(c1=O)c1nc3ccccc3nc1n2CCc1ccccc1,IC50,H9c2,11.7 µM (active)
CN1CCN(c2ccc([N+](=O)[O-])c3cccnc23)CC1,EC50,[1],0.004 µM (active)
same,EC50,[2],> 195 µM (not active)
O=C(CCSc1ccccc1)NC(=O)COC(=O)C1CCCCC1,IC50,[3],6.64 µM (not active)
Cc1cc(C)n(C(=N)NC(=O)c2ccc([N+](=O)[O-])cc2)n1,EC50,[4],26.7 µM (active)
same,EC50,[5],18.9 µM (active)
same,EC50,H4,110 µM (active)
COc1ccc(CCNc2oc(COc3ccc(F)cc3)nc2C#N)cc1,IC50,[3],9.9 µM (not active)
CC(=O)N1N=C(c2ccccc2)CC1c1cn(C)c2ccccc12 (centres undefined),EC50,[4],10.4 µM (active)
same,EC50,[5],9.19 µM (active)
same,EC50,H4,53 µM (active)
COc1ccc(CCn2c(=N)c(C(=O)NCC3CCCO3)cc3c(=O)n4cccc(C)c4nc32)cc1 (centres undefined),EC50,[6],> 30 µM (not active)
same,EC50,[4],34.5 µM (active)
same,EC50,[7],1.2 µM (active)
same,EC50,[5],> 120 µM (not active)
same,EC50,H4,> 120 µM (not active)
COc1c2c(cc3c1C(CC(O)Cc1ccccc1)N(C)CC3)OCO2 (centres undefined),EC50,[1],2.99 µM (active)
O=C(COc1ccc(C(=O)c2ccccc2)cc1)NC1CCCCCC1,IC50,[3],22.9 µM (not active)
O=c1cc(CN2CCN(S(=O)(=O)c3cccc(Cl)c3)CC2)c2ccc(O)cc2o1,IC50,H9c2,> 79 µM (inactive)
Cc1ccc(C(=O)/C=C/c2ccc(-c3ccc(C)cc3)o2)cc1,AC50,[8],14.3 µM (active)
same,AC50,[9],2.79 µM (active)
CCOC(=O)c1cn(CC(=O)Nc2cccc(Cl)c2C)nn1,AC50,[10],> 70 µM (inactive)
same,AC50,[9],4.65 µM (active)
CC1(C)CC2CC(C)(CN2c2ncnc3ccc(Br)cc23)C1 (centres undefined),AC50,[8],0.972 µM (active)
same,AC50,[10],37.2 µM (active)
same,AC50,[9],2.11 µM (active)
CN(CC(=O)N1CCCCCC1)S(=O)(=O)c1ccccc1,EC50,[4],20.8 µM (active)
same,EC50,[5],15.4 µM (active)
same,EC50,H4,18.1 µM (active)
CCOC(=O)C1CCCN(S(=O)(=O)c2cccs2)C1 (centres undefined),IC50,[3],< 0.4 µM (not active)
S=C(NCCc1ccccc1)N1CCc2ccccc2C1,EC50,[4],9.54 µM (active)
same,EC50,[5],12.2 µM (active)
same,EC50,H4,26.3 µM (active)
Cn1c(N2CCN(C(=O)Nc3ccc(C(F)(F)F)cc3)CC2)nc2ccccc21,EC50,[1],3.35 µM (active)
CCn1c(/C=C/Nc2ccccc2)[n+](CC)c2ccc(C(=O)OCC(F)(F)F)cc21,IC50,[3],6.92 µM (not active)
CC(OC(=O)Cc1nnc(O)c2ccccc12)C(=O)Nc1ccccc1[N+](=O)[O-] (centres undefined),IC50,H9c2,> 79 µM (inactive)
COC(=O)c1ccccc1N=Nc1c(O)n[nH]c1N,CC50,[11],> 50 µM (active)
same,EC50,[1],2.99 µM (active)
Cc1csc(SCc2nc(O)c3c4c(sc3n2)CCC4)n1,IC50,H9c2,17.1 µM (active)
O=C(CCCCn1c(=O)[nH]c2ccccc2c1=O)NC1CCN(Cc2ccccc2)CC1,EC50,[1],0.376 µM (active)
CN(Cc1ccc(OC(F)F)cc1)C(=O)c1cccc(S(=O)(=O)N2CCN(c3ccccc3)CC2)c1,AC50,[8],1.65 µM (active)
same,AC50,[10],62.1 µM (active)
same,AC50,[9],2.59 µM (active)
COc1ccc(S(=O)(=O)N(C)C[C@H]2Oc3cc(C4=CCCC4)ccc3S(=O)(=O)N([C@@H](C)CO)C[C@H]2C)cc1,AC50,[12],16.4 µM (active)
COc1ccc(NC(=O)c2ccccc2SC)cc1,IC50,[3],8.1 µM (not active)
CCc1ccc(-c2cc(C(=O)NCc3ccccn3)c3ccccc3n2)cc1,EC50,[4],21.4 µM (active)
same,EC50,[5],6.99 µM (active)
same,EC50,H4,11.4 µM (active)
COc1ccc(OC(=O)c2cnn(-c3ccccc3)c2C)cc1,EC50,[4],1.26 µM (active)
same,EC50,[5],9.33 µM (active)
same,EC50,H4,1.93 µM (active)
COc1ccc2nc(O)c(CN(Cc3cccnc3)S(=O)(=O)c3ccccc3F)cc2c1,EC50,[2],6.06 µM (active)
same,IC50,H9c2,> 79 µM (inactive)
Cc1cccc(NC(S)=NCC(c2ccccc2)N(C)C)c1 (centres undefined),EC50,[1],0.119 µM (active)
O=C1CC2(CCN(C(=O)c3ccccc3F)CC2)Oc2ccccc21,AC50,[8],30.8 µM (active)
same,AC50,[9],65.8 µM (active)
Cc1cccc(C)c1N(CC(=O)Nc1cc(Cl)ccc1Oc1ccccc1)S(C)(=O)=O,IC50,[3],2.8 µM (not active)
CCN1C(=O)/C(=C/c2nc3ccccc3c(=O)n2-c2ccc(C)cc2)c2ccccc21,EC50,[6],> 60 µM (not active)
same,EC50,[4],> 120 µM (not active)
same,EC50,[7],1.79 µM (active)
same,EC50,[5],11 µM (active)
same,EC50,H4,49.8 µM (active)
CCOc1ccccc1N(CC(=O)OC)S(=O)(=O)c1ccccc1,IC50,[3],35 µM (not active)
O=C(CNC(=O)c1nc[nH]c1C(=O)NCC(=O)OCc1ccccc1)OCc1ccccc1,IC50,H9c2,41 µM (inactive)
O=C(CCN1CCC(c2cccs2)=N1)c1cccs1,EC50,[4],17.8 µM (active)
same,EC50,[5],15.7 µM (active)
same,EC50,H4,15.5 µM (active)
same,IC50,cells,35.8 µM (active)
